Values of other authors in patent US20190060340A1, “NOVEL AMINOGLYCOSIDES AND USES THEREOF IN THE TREATMENT OF GENETIC DISORDERS” (Technion Research & Development Foundation Limited, priority 2007, published 2019).

What was measured:
stop mutations = settings: literature; cited from earlier work
[1] = available toxicity data on aminoglycosides; unit inferred; cited from earlier work

## NC[C@@H]1O[C@@H](O[C@H]2[C@H](O)[C@@H](O[C@H]3O[C@H](CO)[C@@H](O)[C@H](N)[C@H]3O)[C@H](N)C[C@@H]2N)[C@@H](O)[C@H](O)[C@H]1O [kanamycin A]
Stop mutations
  stop mutations suppression / read-through activity: does not show any read-through activity
[1]
  LD50: 280 mg/kg
